In patent US20220409617A1, “Drug Formulations and Methods of Treatment for Metabolic Disorders” (The Regents of the University of California, priority 2019, published 2022):
“Also recorded” adds a separate entry of the source.

Key:
[1] = system: mouse embryonic fibroblasts (MEFs); assay: Ceramide-induced (C16:0 CER, C2-ceramide) mitochondrial fragmentation; type: cell-based; conditions: MEFs; C16:0 CER 100 μM or C2-ceramide 50 μM 3 h; 893 5 μM, mdivi-1 50 μM, M1 5 μM, leflunomide 50 μM, P110 1 μM
Protocol: (§1) 3T3-L1 cells were maintained in DMEM with 10% FBS and 1% penicillin-streptomycin until induced to differentiate. 3T3-L1 pre-adipocytes were differentiated as described in (M. P. Valley, et al., Anal. Biochem. 505: 43-50, 2016, the disclosure of which is incorporated herein by reference) with slight modifications. Briefly, pre-adipocytes were grown to confluence. After 2 d, cells were induced with maintenance media containing 500 μM IBMX (15879, Sigma-Aldrich, St. Louis, Mo.), 1 μM dexamethasone (D4902, Sigma-Aldrich), 5 μg/mL bovine insulin (10516, Sigma-Aldrich), and 5 μM troglitazone (50-115-0786, ApexBio). Media was changed every 2-3 d for 7 d. On day 7 post-induction, media was changed to maintenance media+5 μg/mL bovine insulin. On day 9 post-induction, media was changed to maintenance media. Mature adipocytes were used 12-14 d post-induction for all experiments. LSL-KrasG12D mouse embryonic fibroblasts (MEFs) with and without Cre-mediated deletion of the STOP cassette were obtained from David Tuveson (Cold Spring Harbor Laboratory, Cold Spring Harbor N.Y., USA) in 2000. p53^flox/flox MEFs were derived in house (2015) from C57BL/6 mice using standard techniques and immortalized by transient expression of Cre recombinase and deletion of p53. MEFs were cultured and maintained in DMEM with 10% FBS and 1% penicillin-streptomycin. A549 cells were cultured in DMEM with 10% FBS, 1% penicillin-streptomycin and 1% sodium pyruvate. Stock solution of palmitic acid (ACROS Organics, cat # AC129702500) was prepared at 100 mM in ethanol. Palmitate (250 μM) was conjugated to 1% (w/v) fatty-acid free bovine serum albumin (Sigma, A8806) in DMEM at 37° C. for 20 min. For all immunofluorescence assays, 8,000 MEFs were seeded into 8-chamber slides (Cellvis, cat # C8-1.5H-N) 12-16 h before treatment. Cells were pre-treated with sphingolipid-like compound 893 (5 μM in water), myriocin (10 μM in methanol), fumonisin-B1 (30 μM in DMSO), or celastrol (500 nM in DMSO) for 3 h followed by a 3 h treatment with BSA-conjugated palmitate mixture or BSA alone. Where cells were treated with C2-ceramide (50 μM in DMSO) or C16:0 ceramide (100 μM in ethanol) for 3 h, cells were pre-treated with sphingolipid-like compound 893 for 1-3 h as indicated, mdivi-1 (50 μM in DMSO) for 1 h or 24 h, M1 (5 μM in DMSO) for 24 h, mdivi-1 and M1 together for 24 h, leflunomide (50 μM in methanol) for 1 h or 24 h, or with P110 (1 μM in water) for 1 h or 12 h. LSL or KRAS^G12D MEFs were treated with sphingolipid-like compound 893 (5 μM) for 6 h prior to fixation.
MEFs were washed twice with PBS and fixed with 4% paraformaldehyde for 10 min at RT. Cells were permeabilized with 0.3% Triton X-100 in blocking buffer containing 10% fetal bovine serum for 20 min at 37° C. followed by overnight incubation with mouse anti-citrate synthase (sc-390693, Santa Cruz Biotechnology; dilution, 1:200) or rabbit-anti-DRP1 at 1:100 (#8570, Cell Signaling Technology) at 4° C. Cells were then washed twice with PBS and incubated with AlexaFluor 488 goat anti-mouse (A28175, Invitrogen) or AlexaFluor 594 donkey anti-rabbit (A32754, Invitrogen) secondary antibodies at RT followed by 5 min incubation with 1 μg/ml DAPI and 2 washes in PBS. For NADH autofluorescence studies, mice were gavaged with vehicle or 120 mg/kg sphingolipid-like compound 893 at ZT8.5 (4-10.5 h before sacrifice between ZT12.5 and ZT18). Post sacrifice, livers were excised, washed 3× with PBS, placed in DMEM supplemented with 10% FBS and 1% penicillin-streptomycin, and immediately imaged. NADH/NADPH autofluorescence was detected with 740 nm excitation and 450±50 nm detectors using a Mai Tai two-photon laser. Fluorescence microscopy was performed on a Zeiss LSM 780 confocal using a 63× oil objective with a […] numerical aperture (NA) or using a Nikon TE2000-S inverted epifluorescence microscope with a 100× oil objective (1.3 NA) and a Photometrics CoolSNAP ES2 monochrome CCD camera. […]

[2] = system: mouse embryonic fibroblasts (MEFs); type: cell-based; conditions: 3 h pre-treatment then palmitate 250 μM 3 h, 893 5 μM, myriocin 10 μM, fumonisin B1 30 μM, NAV-2729 12.5 μM, YM201636 800 nM, celastrol 500 nM
Protocol: Mitochondrial morphology was assessed by examining citrate synthesis expression under a high resolution microscopy. Specifically, the aspect ratio, branch length and roundness of mitochondria was assessed (FIG. 1).
LSL-KrasG12D mouse embryonic fibroblasts (MEFs) with and without Cre-mediated deletion of the STOP cassette were obtained from David Tuveson (Cold Spring Harbor Laboratory, Cold Spring Harbor N.Y., USA) in 2000. p53^flox/flox MEFs were derived in house (2015) from C57BL/6 mice using standard techniques and immortalized by transient expression of Cre recombinase and deletion of p53. MEFs were cultured and maintained in DMEM with 10% FBS and 1% penicillin-streptomycin. […] Stock solution of palmitic acid (ACROS Organics, cat # AC129702500) was prepared at 100 mM in ethanol. Palmitate (250 μM) was conjugated to 1% (w/v) fatty-acid free bovine serum albumin (Sigma, A8806) in DMEM at 37° C. for 20 min. For all immunofluorescence assays, 8,000 MEFs were seeded into 8-chamber slides (Cellvis, cat # C8-1.5H-N) 12-16 h before treatment. Cells were pre-treated with sphingolipid-like compound 893 (5 μM in water), myriocin (10 μM in methanol), fumonisin-B1 (30 μM in DMSO), or celastrol (500 nM in DMSO) for 3 h followed by a 3 h treatment with BSA-conjugated palmitate mixture or BSA alone.

[3] = system: C16:0 ceramide generation (CerS6); assay: C16:0 ceramide levels in palmitate-treated MEFs (UPLC-MS/MS); type: cell-based, mouse; conditions: MEFs; 3 h pre-treatment (893 5 μM, myriocin 10 μM, fumonisin B1 30 μM) then palmitate 250 μM 3 h
Protocol: Plasma pharmacokinetic analysis of sphingolipid-like compound 893 was performed by Pharmaron Corporation (Beijing, China). C16:0 ceramide levels were quantified in cells using the method described in (T. Kasumov, et al., Anal. Biochem. 401: 154-161, 2010, the disclosure of which is incorporated herein by reference) with minor modifications. Cultured cells were washed twice in PBS and scraped into 250 μL of HPLC grade water and flash frozen until time of analysis. On the day of analysis, samples were thawed, and an aliquot used for protein quantification. For C16:0 ceramide levels in mouse liver, 25 mg of tissue was homogenized in 1 ml of ice-cold PBS using a mechanical probe homogenizer (VWR, Radnor, Pa.), protein levels quantified, and 50 μl of the homogenate diluted with 150 μl HPLC-grade water for C16:0 ceramide analysis. Fifty ng of C17:0 ceramide prepared in ethanol (#22532, Cayman Chemical, Ann Arbor, Mich.) was added into 200 μL of the thawed cell suspension or liver homogenate as an internal standard to control for varying extraction efficiency; 750 μL of an ice-cold 1:2 chloroform/methanol mixture was then added. Samples were sonicated for 30 min and phase separation induced by the addition of 250 μL each of chloroform and HPLC-grade water. Samples were centrifuged at 4° C. for 10 min and the lower lipid phase transferred to a clean tube. The remaining protein and aqueous layers were re-extracted with an additional 500 μL of chloroform. Lipid phases were combined and then dried under vacuum. Dried extract was re-constituted in 100% acetonitrile immediately before analysis. Samples were analyzed by ultra-performance liquid chromatography tandem mass spectrometry (UPLC-MS/MS) using a Waters Micromass Quattro Premier XE equipped with a Waters ACQUITY BEH C4 column (Waters Corp.). Samples were resolved starting at 60% mobile phase A (10 mM ammonium acetate and 0.05% formic acid in water) to 98% mobile phase B (60:40 acetonitrile:isopropanol) over 3 min with a linear gradient, held at 98% B for 1 min, then the column was equilibrated with 60% A for 1 min. The mass spectrometer was operated in positive ion mode with the following parameters: cone voltage 20 V, source temperature 125° C., desolvation temperature 400° C. Ion transition channels for MS/MS were 538→264 for C16:0 ceramide and 552→264 for C17:0 ceramide, both with a dwell time of 285 ms. Standard curves prepared from C16:0 ceramide (#860516, Avanti Polar Lipids, Alabaster, Ala.) dissolved in ethanol were used for quantitation and were linear from 4.1 nM-1,000 nM, with an R^2 of 0.98 or greater.
3T3-L1 cells were maintained in DMEM with 10% FBS and 1% penicillin-streptomycin until induced to differentiate. […]

A549 lung cancer cells = assay: KRAS-mediated mitochondrial fission in A549 cells; type: cell-based, human; conditions: A549, oncogenic KRAS; 893 5 μM 1 h, leflunomide 50 μM 24 h
Protocol: as §1, with “Where cells were treated with C2-ceramide (50 μM in DMSO) or C16:0 ceramide (100 μM in ethanol) for 3 h, cells were pre-treated with sphingolipid-like compound 893 for 1-3 h as indicated, mdivi-1 (50 μM in DMSO) for 1 h or 24 h, M1 (5 μM in DMSO) for 24 h, mdivi-1 and M1 together for 24 h, leflunomide (50 μM in methanol) for 1 h or 24 h, or with P110 (1 μM in water) for 1 h or 12 h. LSL or KRAS^G12D MEFs were treated with sphingolipid-like compound 893 (5 μM) for 6 h prior to fixation.” left out
MEFs were washed twice with PBS and fixed with 4% paraformaldehyde for 10 min at RT. […] NADH/NADPH autofluorescence was detected with 740 nm excitation and 450±50 nm detectors using a Mai Tai two-photon laser. Fluorescence microscopy was performed on a Zeiss LSM 780 confocal using a 63× oil objective with a […] numerical aperture (NA) or using a Nikon TE2000-S inverted epifluorescence microscope with a 100× oil objective (1.3 NA) and a Photometrics CoolSNAP ES2 monochrome CCD camera. […]

CC(=NNc1c(Cl)cc(Cl)cc1Cl)c1cc(Cl)ccc1O [M1]
Protection from ceramide-induced mitochondrial fragmentation [1]: neither compound alone or in combination prevented ceramide- or KRAS-induced mitochondrial fragmentation

CCCC[C@@H](C)[C@@H](OC(=O)C[C@@H](CC(=O)O)C(=O)O)[C@H](C[C@@H](C)C[C@H](O)CCCC[C@@H](O)C[C@H](O)[C@H](C)N)OC(=O)C[C@@H](CC(=O)O)C(=O)O [fumonisin B1]
Protection from palmitate-induced mitochondrial fragmentation (aspect ratio, branch length, roundness) [2]: prevented palmitate-induced morphological changes | Palmitate-induced C16:0 ceramide production [3]: Blocking ceramide production | Reversal of mitochondrial fragmentation / tubularity in A549 cells (A549 lung cancer cells): did not increase mitochondrial tubularity in A549 cells

COc1cc(-n2c(=S)[nH]c3ccccc3c2=O)c(Cl)cc1Cl [mdivi-1]
Protection from ceramide-induced mitochondrial fragmentation [1]: failed to prevent C16:0 ceramide-induced mitochondrial fragmentation; also recorded: neither compound alone or in combination prevented ceramide- or KRAS-induced mitochondrial fragmentation

CCCCCCC(=O)CCCCCC/C=C/C[C@@H](O)[C@H](O)[C@@](N)(CO)C(=O)O [myriocin]
Protection from palmitate-induced mitochondrial fragmentation (aspect ratio, branch length, roundness) [2]: prevented palmitate-induced morphological changes | Palmitate-induced C16:0 ceramide production [3]: Blocking ceramide production | Reversal of mitochondrial fragmentation / tubularity in A549 cells (A549 lung cancer cells): did not increase mitochondrial tubularity in A549 cells

NAV-2729
Protection from palmitate-induced mitochondrial fragmentation (aspect ratio, branch length, roundness) [2]: partial protection from palmitate-induced mitochondrial fragmentation
